Source: patent US20060084704A1, “Methods and compositions for enhancing degradation of nuclear receptor transcription factors and uses thereof” (priority 2004, published 2006)

Assays:
[1] = molecular target: T1, mutant Q49 androgen receptor (Homo sapiens, UniProt P10275, INS80QQQQQQQQQQQQQQQQQQQQQQQQQQ); experiment: Mutant androgen receptor inclusions in COS-1 cells transfected with GFPARQ49 (fluorescence microscopy); type: cell-based; conditions: COS-1 cells transfected with GFPARQ49, JC9 5 micromolar
T1 construct: GFP; expressed in transfected cells; host or cells: COS-1 (monkey kidney)
T1 sequence (P10275 with tags, fused parts or gaps with the stated changes): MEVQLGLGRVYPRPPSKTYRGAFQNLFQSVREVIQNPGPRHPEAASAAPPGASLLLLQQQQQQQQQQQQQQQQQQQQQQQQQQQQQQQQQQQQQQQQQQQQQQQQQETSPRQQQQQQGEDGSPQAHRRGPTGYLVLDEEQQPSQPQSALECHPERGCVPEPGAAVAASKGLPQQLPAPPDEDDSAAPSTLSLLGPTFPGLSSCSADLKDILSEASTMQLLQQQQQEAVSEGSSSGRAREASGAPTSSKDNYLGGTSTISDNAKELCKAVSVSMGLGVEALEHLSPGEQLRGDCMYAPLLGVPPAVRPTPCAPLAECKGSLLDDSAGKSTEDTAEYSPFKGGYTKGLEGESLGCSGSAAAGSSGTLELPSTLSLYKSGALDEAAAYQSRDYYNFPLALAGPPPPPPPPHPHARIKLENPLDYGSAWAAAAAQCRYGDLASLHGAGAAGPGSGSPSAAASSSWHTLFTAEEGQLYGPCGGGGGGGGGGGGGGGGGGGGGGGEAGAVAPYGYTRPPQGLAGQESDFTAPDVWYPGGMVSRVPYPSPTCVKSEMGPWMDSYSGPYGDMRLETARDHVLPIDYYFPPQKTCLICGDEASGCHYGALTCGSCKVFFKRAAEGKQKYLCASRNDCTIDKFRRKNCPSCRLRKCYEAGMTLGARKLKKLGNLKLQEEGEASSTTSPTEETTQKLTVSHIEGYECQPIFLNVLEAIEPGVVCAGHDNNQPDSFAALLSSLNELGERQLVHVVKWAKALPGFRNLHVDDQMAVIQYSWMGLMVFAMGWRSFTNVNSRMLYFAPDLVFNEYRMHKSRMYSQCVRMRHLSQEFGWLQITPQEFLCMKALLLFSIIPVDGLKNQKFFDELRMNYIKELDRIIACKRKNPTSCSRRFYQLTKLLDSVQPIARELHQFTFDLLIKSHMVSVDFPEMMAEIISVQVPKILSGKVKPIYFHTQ
Procedure: Monkey kidney COS-1 cells were plated at a density of 3×10^4 cells per 0.5-milliliter volume onto alcohol-cleaned and sterilized cover slips placed in 35-millimeter suspension culture dishes containing Dulbecco's modified Eagle's (DME) medium containing 10% FBS. The cells were transfected with plasmids containing either the Q19 (plasmid GFPARQ19) or Q49 (plasmid GFPARQ49) mutant androgen receptor and green fluorescent protein (GFP) as a reporter. For each coverslip, 12.3 microliters SuperFect was added to 3.075 micrograms plasmid in 102.5 microliters DME medium (to give a 1:4 ratio of DNA to SuperFect reagent); the mixture was vortexed briefly, and the complex allowed to form over 15 minutes. Each mixture then received 897 microliters CD/DME and was mixed gently. The resulting 1-milliliter volumes were added to the dishes containing the coverslips (final plasmid concentration was 3.02 micrograms per dish). Cells were allowed to incubate with the transfection solution for 5 hours, then the medium was changed to fresh 1.5 milliliters CD/DME medium with either vehicle (DMSO) only added or JC9 (final concentration 5 micromolar). […] The coverslips were air-dried, mounted on slides with a glycerol-based mounting agent, and stored at 4 degrees Celsius if necessary prior to observation with fluorescence microscopy. […]

[2] = molecular target: T2, androgen receptor (AR) (Homo sapiens, UniProt P10275); experiment: Western blot of T47D cell lysates, AR; type: cell-based; conditions: 5 or 10 micromolar, presence or absence of estradiol (E2)
T2 construct: endogenous in cells; host or cells: T47D
T2 sequence (P10275 1-920): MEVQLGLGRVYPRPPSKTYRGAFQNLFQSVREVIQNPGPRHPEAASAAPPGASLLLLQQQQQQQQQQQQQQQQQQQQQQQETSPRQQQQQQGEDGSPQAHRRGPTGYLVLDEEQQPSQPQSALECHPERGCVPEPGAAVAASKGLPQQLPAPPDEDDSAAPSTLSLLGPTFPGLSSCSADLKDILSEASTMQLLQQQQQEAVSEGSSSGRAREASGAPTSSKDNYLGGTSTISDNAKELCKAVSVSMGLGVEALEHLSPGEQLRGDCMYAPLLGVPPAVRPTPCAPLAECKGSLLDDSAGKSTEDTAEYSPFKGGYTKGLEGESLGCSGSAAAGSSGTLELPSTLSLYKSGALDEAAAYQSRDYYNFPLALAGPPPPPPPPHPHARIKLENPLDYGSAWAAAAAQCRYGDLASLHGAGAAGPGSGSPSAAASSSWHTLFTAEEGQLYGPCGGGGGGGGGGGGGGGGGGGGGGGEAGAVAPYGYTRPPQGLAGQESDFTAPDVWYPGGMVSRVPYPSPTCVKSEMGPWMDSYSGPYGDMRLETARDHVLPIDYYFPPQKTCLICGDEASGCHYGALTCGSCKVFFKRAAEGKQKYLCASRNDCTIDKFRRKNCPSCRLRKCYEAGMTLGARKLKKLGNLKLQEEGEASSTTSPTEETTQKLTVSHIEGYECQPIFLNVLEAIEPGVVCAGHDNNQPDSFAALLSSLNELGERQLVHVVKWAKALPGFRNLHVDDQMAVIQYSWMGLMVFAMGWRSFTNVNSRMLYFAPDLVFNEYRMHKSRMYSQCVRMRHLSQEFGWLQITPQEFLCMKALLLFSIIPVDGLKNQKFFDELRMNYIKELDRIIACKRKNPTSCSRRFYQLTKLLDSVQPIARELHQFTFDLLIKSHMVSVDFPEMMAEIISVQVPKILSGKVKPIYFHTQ
Procedure: Human prostate cancer LNCaP cells and T47D cells were plated at a density of 7×10^5 cells per 60 millimeter tissue culture dish in […] (RPMI) medium containing 10% FBS. The medium was changed to RPMI or DME medium containing 10% charcoal-stripped serum 24 hours later to deplete cellular androgens or estrogens. After another 24 hours, treatment with the test compounds began. The test dose of JC15 was 1 or 2 micromolar and the test does of JC9 was 1, 5 and 10 micromolar. LNCap cells also received dihydrotestosterone (DHT) (3 nanomolar). Control cells received a corresponding amount of the vehicle, dimethylsulfoxide (DMSO) (<0.04%) for an equivalent exposure time. Cells were incubated with JC15 for 24 or 48 hours, and were lysed in 250 microliters of 1×SDS/PAGE loading buffer. Approximately 40 micrograms of total cellular protein was loaded in each lane of a pre-cast gel (NuPAGE, Invitrogen). Protein separation and transfer were performed following the manufacturer's instructions.

## COc1ccc(C=CC(=O)C=C(O)C=Cc2ccc(OC)c(OC)c2)cc1OC [JC9, 5-hydroxy-1,7-bis(3,4-dimethoxyphenyl)-1,4,6-heptatrien-3-one]
[1]
  fluorescent inclusions or aggregates of mutant Q49 androgen receptor: substantially smaller amounts of fluorescent inclusions
[2]
  cellular concentration of AR: decreased
